According to ChEMBL document CHEMBL5370585, “Exploration and Biological Evaluation of 1,3-Diamino-7H-pyrrol[3,2-f]quinazoline Derivatives as Dihydrofolate Reductase Inhibitors” (J Med Chem, 2023):
In brackets after ≈: the same amount, converted by molar mass.

Columns and labels:
Escherichia coli = assay: Antibacterial activity against Escherichia coli ATCC 25922 incubated for 16 to 18 hrs by CLSI based broth dilution method; format: functional; conditions: time 16-18 hrs
[1] = system: Staphylococcus epidermidis; assay: Antibacterial activity against Staphylococcus epidermidis ATCC 12228 incubated for 16 to 18 hrs by CLSI based broth dilution method; format: functional; conditions: time 16-18 hrs
Enterococcus faecalis = assay: Antibacterial activity against Enterococcus faecalis ATCC 29212 incubated for 16 to 18 hrs by CLSI based broth dilution method; format: functional; conditions: time 16-18 hrs
Acinetobacter baumannii = assay: Antibacterial activity against Acinetobacter baumannii ATCC 19606 incubated for 16 to 18 hrs by CLSI based broth dilution method; format: functional; conditions: time 16-18 hrs
HCT-116 = assay: Cytotoxicity against human HCT-116 cells measured after 72 hrs by MTT assay; format: functional, cell-based; conditions: HCT-116, 72 h
[2] = target: T1, Dihydrofolate reductase (Homo sapiens) (UniProt P00374); assay: Inhibition of human DHFR at 1 uM incubated for 10 mins in presence of NADPH by colorimetry based analysis relative to control
T1 sequence (whole entry): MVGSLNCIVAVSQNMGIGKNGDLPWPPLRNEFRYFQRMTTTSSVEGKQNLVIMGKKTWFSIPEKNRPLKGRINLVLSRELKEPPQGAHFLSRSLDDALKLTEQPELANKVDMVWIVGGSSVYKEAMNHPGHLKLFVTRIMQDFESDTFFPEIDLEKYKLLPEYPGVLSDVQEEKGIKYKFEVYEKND

HGC-27 = assay: Cytotoxicity against human HGC-27 cells measured after 72 hrs by MTT assay; format: functional, cell-based; conditions: HGC-27, 72 h
HepG2 = assay: Cytotoxicity against human HepG2 cells measured after 72 hrs by MTT assay; format: functional, cell-based; conditions: HepG2, 72 h
Staphylococcus aureus [3] = assay: Antibacterial activity against Staphylococcus aureus ATCC 29213 incubated for 16 to 18 hrs by CLSI based broth dilution method; format: functional; conditions: time 16-18 hrs
Staphylococcus aureus [4] = assay: Antibacterial activity against methicillin-resistant Staphylococcus aureus ATCC 43300 incubated for 16 to 18 hrs by CLSI based broth dilution method; format: functional; conditions: time 16-18 hrs
MCF7 = assay: Cytotoxicity against human MCF7 cells measured after 72 hrs by MTT assay; format: functional, cell-based; conditions: MCF7, 72 h

## Nc1nc(N)c2c(ccc3c2ccn3Cc2cccc3sc(N)nc23)n1
Escherichia coli
  MIC: 0.5 µg/mL (≈ 1.38 µM)
[1]
  MIC: ≤ 0.004 µg/mL
Enterococcus faecalis
  MIC: 0.25 µg/mL (≈ 0.692 µM)
Acinetobacter baumannii
  MIC: 32 µg/mL (≈ 88.5 µM)
HCT-116
  IC50: 5.81 µM
[2]
  inhibition: 77.4%
HGC-27
  IC50: 1.77 µM
HepG2
  IC50: 0.26 µM
Staphylococcus aureus [3]
  MIC: 0.25 µg/mL (≈ 0.692 µM)
Staphylococcus aureus [4]
  MIC: 0.125 µg/mL (≈ 0.346 µM)
MCF7
  IC50: 0.79 µM

## CCOC(=O)c1ccc(Cn2ccc3c4c(N)nc(N)nc4ccc32)c2ccccc12
Escherichia coli
  MIC: 64 µg/mL (≈ 156 µM)
[1]
  MIC: ≤ 0.06 µg/mL
Enterococcus faecalis
  MIC: 0.5 µg/mL (≈ 1.22 µM)
HCT-116
  IC50: 0.87 µM
[2]
  inhibition: 70.9%
HGC-27
  IC50: < 0.1 µM
HepG2
  IC50: 0.53 µM
Staphylococcus aureus [3]
  MIC: 0.5 µg/mL (≈ 1.22 µM)
Staphylococcus aureus [4]
  MIC: 0.25 µg/mL (≈ 0.608 µM)
MCF7
  IC50: 8.25 µM

## Nc1nc(N)c2c(ccc3c2ccn3Cc2ccc3cc(C(=O)O)ccc3n2)n1
Escherichia coli
  MIC: > 128 µg/mL
[1]
  MIC: 0.25 µg/mL (≈ 0.65 µM)
Enterococcus faecalis
  MIC: > 8 µg/mL
HCT-116
  IC50: 9.57 µM
[2]
  inhibition: 77.4%
HGC-27
  IC50: 4.21 µM
HepG2
  IC50: 4.65 µM
Staphylococcus aureus [3]
  MIC: 32 µg/mL (≈ 83.2 µM)
Staphylococcus aureus [4]
  MIC: 32 µg/mL (≈ 83.2 µM)
MCF7
  IC50: 9.74 µM

## COc1ccc2nc(Cn3ccc4c5c(N)nc(N)nc5ccc43)sc2c1
Escherichia coli
  MIC: 2 µg/mL (≈ 5.31 µM)
[1]
  MIC: ≤ 0.004 µg/mL
Enterococcus faecalis
  MIC: 0.5 µg/mL (≈ 1.33 µM)
HCT-116
  IC50: 4.42 µM
[2]
  inhibition: 38.7%
HGC-27
  IC50: 0.82 µM
HepG2
  IC50: 2.71 µM
Staphylococcus aureus [3]
  MIC: 0.5 µg/mL (≈ 1.33 µM)
Staphylococcus aureus [4]
  MIC: 0.25 µg/mL (≈ 0.664 µM)
MCF7
  IC50: 1.19 µM

## Nc1nc(N)c2c(ccc3c2ccn3Cc2ccc3ccccc3c2)n1
Escherichia coli
  MIC: 0.5 µg/mL (≈ 1.47 µM)
[1]
  MIC: 0.5 µg/mL (≈ 1.47 µM)
Enterococcus faecalis
  MIC: 0.5 µg/mL (≈ 1.47 µM)
HCT-116
  IC50: 0.05 µM
[2]
  inhibition: 70.9%
HGC-27
  IC50: 0.029 µM
HepG2
  IC50: 0.11 µM
Staphylococcus aureus [3]
  MIC: 0.5 µg/mL (≈ 1.47 µM)
Staphylococcus aureus [4]
  MIC: 0.25 µg/mL (≈ 0.737 µM)
MCF7
  IC50: > 1 µM

## Cc1cc2c3c(N)nc(N)nc3ccc2n1Cc1cccc2scnc12
Escherichia coli
  MIC: > 8 µg/mL
[1]
  MIC: ≤ 0.004 µg/mL
Enterococcus faecalis
  MIC: 2 µg/mL (≈ 5.55 µM)
Acinetobacter baumannii
  MIC: 8 µg/mL (≈ 22.2 µM)
HCT-116
  IC50: > 10 µM
[2]
  inhibition: 99.4%
HGC-27
  IC50: 4.5 µM
HepG2
  IC50: 0.25 µM
Staphylococcus aureus [3]
  MIC: 1 µg/mL (≈ 2.77 µM)
Staphylococcus aureus [4]
  MIC: 1 µg/mL (≈ 2.77 µM)
MCF7
  IC50: 0.45 µM

## COC(=O)c1ccc(Cn2ccc3c4c(N)nc(N)nc4ccc32)c2ccccc12
Escherichia coli
  MIC: 2 µg/mL (≈ 5.03 µM)
[1]
  MIC: ≤ 0.004 µg/mL
Enterococcus faecalis
  MIC: 0.016 µg/mL (≈ 0.0403 µM)
HCT-116
  IC50: 0.18 µM
[2]
  inhibition: 83.9%
HGC-27
  IC50: < 0.1 µM
HepG2
  IC50: 0.19 µM
Staphylococcus aureus [3]
  MIC: 0.004 µg/mL (≈ 0.0101 µM)
Staphylococcus aureus [4]
  MIC: 0.004 µg/mL (≈ 0.0101 µM)
MCF7
  IC50: 1.32 µM

## Nc1nc(N)c2c(ccc3c2ccn3Cc2nc3ccc(C(=O)O)cc3s2)n1
Escherichia coli
  MIC: > 8 µg/mL
[1]
  MIC: 0.5 µg/mL (≈ 1.28 µM)
Enterococcus faecalis
  MIC: > 8 µg/mL
Acinetobacter baumannii
  MIC: > 32 µg/mL
HCT-116
  IC50: 1.6 µM
[2]
  inhibition: 80.6%
HGC-27
  IC50: 0.89 µM
HepG2
  IC50: 2.19 µM
Staphylococcus aureus [3]
  MIC: 8 µg/mL (≈ 20.5 µM)
Staphylococcus aureus [4]
  MIC: > 8 µg/mL
MCF7
  IC50: 8.12 µM

## Cc1cc2c3c(N)nc(N)nc3ccc2n1Cc1ccc(-c2ccccc2)cc1
Escherichia coli
  MIC: > 8 µg/mL
[1]
  MIC: ≤ 0.004 µg/mL
Enterococcus faecalis
  MIC: 4 µg/mL (≈ 10.5 µM)
Acinetobacter baumannii
  MIC: > 32 µg/mL
HCT-116
  IC50: 2.26 µM
HGC-27
  IC50: 7.06 µM
HepG2
  IC50: 1.31 µM
Staphylococcus aureus [3]
  MIC: 4 µg/mL (≈ 10.5 µM)
Staphylococcus aureus [4]
  MIC: 4 µg/mL (≈ 10.5 µM)
MCF7
  IC50: 1.47 µM

## Nc1nc(N)c2c(ccc3c2ccn3Cc2ccc(B(O)O)c3ccccc23)n1
Escherichia coli
  MIC: 1 µg/mL (≈ 2.61 µM)
[1]
  MIC: ≤ 0.004 µg/mL
Enterococcus faecalis
  MIC: 0.125 µg/mL (≈ 0.326 µM)
HCT-116
  IC50: < 0.1 µM
[2]
  inhibition: 77.4%
HGC-27
  IC50: < 0.1 µM
HepG2
  IC50: < 0.1 µM
Staphylococcus aureus [3]
  MIC: 0.25 µg/mL (≈ 0.652 µM)
Staphylococcus aureus [4]
  MIC: 0.125 µg/mL (≈ 0.326 µM)
MCF7
  IC50: 0.11 µM

## Nc1nc(N)c2c(ccc3c2ccn3Cc2ccc3sc(N)nc3c2)n1
Escherichia coli
  MIC: > 8 µg/mL
[1]
  MIC: 2 µg/mL (≈ 5.53 µM)
Enterococcus faecalis
  MIC: > 8 µg/mL
Acinetobacter baumannii
  MIC: > 32 µg/mL
HCT-116
  IC50: > 10 µM
HGC-27
  IC50: > 10 µM
HepG2
  IC50: > 10 µM
Staphylococcus aureus [3]
  MIC: > 8 µg/mL
Staphylococcus aureus [4]
  MIC: 8 µg/mL (≈ 22.1 µM)
MCF7
  IC50: > 10 µM

## COc1cc(Cc2cnc(N)nc2N)c2c(c1OC)OC(C1CC1)C=C2 (stereo not drawn)
Escherichia coli
  MIC: 1 µg/mL (≈ 2.82 µM)
[1]
  MIC: ≤ 0.004 µg/mL
Enterococcus faecalis
  MIC: 0.06 µg/mL (≈ 0.169 µM)
Staphylococcus aureus [3]
  MIC: 0.06 µg/mL (≈ 0.169 µM)
Staphylococcus aureus [4]
  MIC: 0.06 µg/mL (≈ 0.169 µM)
